Measurements reported in patent US20250304923A1, “Novel HIV-1 Variants And Their Methods Of Use In An Animal Challenge Model” (priority 2022, published 2025).
Read-outs that look alike come from different tables or passages of the source.

How the values were obtained:
[1] = tested on: blood lymphocytes, NK cells, B cells, monocytes; assay: Immune cell dynamics during dexamethasone administration (flow cytometry of blood); parameters: species or system owl monkeys; settings: monkey, in vivo
Method: FIG. S8. […] In the top graph, the plasma viremia is reported for each of three animals over the course of the experiment. ND=no HIV-1 RNA detected. In the remainder of the rows, flow cytometry was performed on fresh Nancy Ma's owl monkey blood to enumerate the indicated cell types over the time course of infection. Antibodies: CD8 Invitrogen #MHCD0801; CD4 BD #550631; CD3 BD #563916 or #563918; CD20 BD #340941; CD16 BD #563892; CD14 BD #557923.
There are other data to support this. In a few animals, Applicants observe undetectable viremia after the acute phase, like elite controllers (one such animal shown in FIG. S29A). Set point viremia in these animals is below 80 HIV-1 RNA copies per mL, our assay LoQ.

[2] = parameters: species or system Nancy Ma's owl monkeys; settings: monkey, in vivo
[3] = tested on: HIVnom
Source text: Two Nancy Ma's owl monkeys were intravenously injected with 1.3×10^6 infectious units of HIVnom1 and another two with 2.1×10^6 infectious units of HIVnom2 (FIG. 2a). Blood was drawn weekly for up to 30 weeks, with the “0” timepoint taken from the leg opposite to the site of virus injection five minutes after inoculation. Blood samples were sent to the University of Washington Clinical Retrovirology Laboratory (a human clinical diagnostics lab in Seattle, WA, USA) for determination of plasma viremia by RT-qPCR.
Treatment consisted of a once-daily subcutaneous injection. […] Study animals were maintained at 6 mg/kg for an additional 1-2 weeks.
Plasma vRNA quantification was performed by the commercial human diagnostic services at the University of Washington Retrovirology Laboratory (UWRL; Department of Laboratory Medicine, Seattle, WA, USA) using the Abbott RealTime HIV-1 RNA assay (Abbot #06L18-090) in conjunction with RT-qPCR instrumentation, practices, and procedures standard to that laboratory. Briefly, 500 μL of frozen EDTA owl monkey plasma were submitted for analysis and then diluted to 1 mL by the laboratory prior to processing. The range of vRNA quantitation for the assay is 40-10,000,000 HIV-1 genomes/mL when using undiluted samples, although the range of vRNA reported in this study was 80-20,000,000 HIV-1 genomes per mL due to the dilution required for the animal samples. The laboratory reported four possible outcomes: 1) virus detected and a vRNA quantification in HIV-1 genomes/mL; 2) virus detected but numbers were below the lower limit of quantification (<80 HIV-1 genomes/mL); 3) virus detected but the numbers were above the upper limit of quantification (>20 million HIV-1 genomes/mL); 4) virus not detected. The vRNA assay was performed for each animal prior to the start of the study, on the day of exposure (day 0), and on multiple days throughout the study (File S1).

[4] = tested on: virus stocks; assay: Susceptibility of virus stocks to post-exposure prophylaxis drugs (VELA Diagnostics); settings: all virus stocks, prior to animal testing
Source text: Virus stocks and biologic samples from infected animals were handled with biosafety level 3 operating procedures within a biosafety level 2 physical facility. […] This ensured that any research personnel, in case of accidental exposure to viruses or virus-exposed animals, could be successfully treated with standard post-exposure protocols if necessary.

## Dexamethasone sodium phosphate
[1]
  depletion of blood immune cells: reversibly depleting blood lymphocytes, NK cells, and B cells, but not monocytes
[2]
  hypokalemia: mild hypokalemia noted to occur in some animals
[3]; animal BO
  peak rebound viremia upon dexamethasone treatment: 92 HIVnom genomes per mL
[3]; animal JI
  peak rebound viremia upon dexamethasone treatment: 258 HIVnom genomes per mL
[3]; animal KI
  peak rebound viremia upon dexamethasone treatment: 612 HIVnom genomes per mL
[3]; animal RI
  peak rebound viremia upon dexamethasone treatment: 18,220 HIVnom genomes per mL
[3]; three of the four animals infected with HIVnom1 or HIVnom2, subcutaneous, several weeks
  virus rebound in blood during dexamethasone treatment: virus rebounded into the blood to detectable levels

## C[C@H](Cn1cnc2c(N)ncnc21)OCP(=O)(O)O [tenofovir]
[4]
  susceptibility of virus stocks to drug: susceptible

## Nc1nc(=O)n([C@@H]2CS[C@H](CO)O2)cc1F [emtricitabine]
[4]
  susceptibility of virus stocks to drug: susceptible

## Cc1nnc(C(=O)NC(C)(C)c2nc(C(=O)NCc3ccc(F)cc3)c(O)c(=O)n2C)o1 [raltegravir]
[4]
  susceptibility of virus stocks to drug: susceptible
